For 16 compounds, IC50 and Ki results are on record in ChEMBL document CHEMBL1909046, “DrugMatrix in vitro pharmacology data”.

A short description of assay [1]: DRUGMATRIX: Purinergic P2X radioligand binding (ligand: [3H] alpha, beta-Methylene-ATP). It counts as cell membranes, Oryctolagus cuniculus, New Zealand albino, Urinary bladder, Membrane. The settings on record: Not Active = under 50% inhibition at 10 µM.
Assay [2] has as its target T1, Neuropeptide Y receptor type 2 (Homo sapiens, UniProt P49146). Further: in other assays of this panel Not Active means under 50% inhibition at 10 µM.
T1 sequence (P49146 whole entry): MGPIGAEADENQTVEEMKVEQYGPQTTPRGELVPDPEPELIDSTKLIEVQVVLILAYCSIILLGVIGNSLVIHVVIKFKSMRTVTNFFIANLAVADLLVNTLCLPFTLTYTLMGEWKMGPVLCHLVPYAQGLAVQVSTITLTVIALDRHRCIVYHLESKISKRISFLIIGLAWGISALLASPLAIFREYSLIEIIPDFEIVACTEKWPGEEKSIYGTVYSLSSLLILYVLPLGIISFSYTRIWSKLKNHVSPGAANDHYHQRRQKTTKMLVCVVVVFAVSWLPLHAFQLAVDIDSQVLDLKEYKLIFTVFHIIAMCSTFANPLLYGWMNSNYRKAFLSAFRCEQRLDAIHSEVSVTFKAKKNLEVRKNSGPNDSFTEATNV
The format is cell membranes, Membrane. The settings on record: kan-ts.

Another assay deals with T2, Progesterone receptor (Bos taurus, UniProt Q690N0).
T2 sequence (Q690N0 whole entry): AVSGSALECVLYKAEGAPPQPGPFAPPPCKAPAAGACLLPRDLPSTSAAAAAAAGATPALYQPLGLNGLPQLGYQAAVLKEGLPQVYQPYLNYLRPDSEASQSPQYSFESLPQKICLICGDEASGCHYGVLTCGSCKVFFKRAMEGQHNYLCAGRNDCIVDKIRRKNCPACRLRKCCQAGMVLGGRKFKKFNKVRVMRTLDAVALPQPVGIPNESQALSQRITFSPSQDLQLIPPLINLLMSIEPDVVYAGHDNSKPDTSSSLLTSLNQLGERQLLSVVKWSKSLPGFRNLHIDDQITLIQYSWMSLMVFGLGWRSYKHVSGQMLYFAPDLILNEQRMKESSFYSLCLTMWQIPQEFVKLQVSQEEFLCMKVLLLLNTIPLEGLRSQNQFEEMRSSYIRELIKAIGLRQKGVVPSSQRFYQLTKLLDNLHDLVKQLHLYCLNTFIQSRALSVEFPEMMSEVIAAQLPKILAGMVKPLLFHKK
Kind of assay: DRUGMATRIX: Progesterone radioligand binding (ligand: [3H] R-5020). The settings on record: Not Active = under 50% inhibition at 10 µM; for Ki: read-out: Ki. The format is tissue-based, Uterus.

The target of assay [3] is Protein kinase C alpha type (Homo sapiens, UniProt P17252). The format is cell-based. Particulars: sf9.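 Further: inhibition of PKCalpha kinase activity measured in an enzyme assay with histone as the phosphorylation substrate; in other assays of this panel Not Active means under 50% inhibition at 10 µM.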
The target in assay [4] is 5-hydroxytryptamine receptor 2B (Homo sapiens, UniProt P41595). It counts as cell membranes, CHO-K1, Membrane. Particulars: for Ki: read-out: Ki. On all read-outs here: in other assays of this panel Not Active means under 50% inhibition at 10 µM.
5-hydroxytryptamine receptor 2B, sequence (P41595 whole entry): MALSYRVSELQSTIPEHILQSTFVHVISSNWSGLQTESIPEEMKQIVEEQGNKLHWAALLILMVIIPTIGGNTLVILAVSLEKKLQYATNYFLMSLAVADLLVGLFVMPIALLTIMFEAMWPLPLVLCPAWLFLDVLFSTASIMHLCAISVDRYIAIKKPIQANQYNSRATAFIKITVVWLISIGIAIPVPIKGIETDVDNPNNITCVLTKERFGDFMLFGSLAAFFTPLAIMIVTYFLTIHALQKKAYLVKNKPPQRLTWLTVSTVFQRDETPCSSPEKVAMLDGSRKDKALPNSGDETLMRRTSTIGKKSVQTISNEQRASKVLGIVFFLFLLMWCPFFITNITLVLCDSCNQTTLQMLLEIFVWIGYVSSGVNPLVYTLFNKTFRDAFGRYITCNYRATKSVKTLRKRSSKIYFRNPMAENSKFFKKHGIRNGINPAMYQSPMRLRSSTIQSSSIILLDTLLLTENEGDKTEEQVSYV
The target in a further assay is Estrogen receptor beta (Homo sapiens, UniProt Q92731). The settings on record: sf9. Further: in other assays of this panel Not Active means under 50% inhibition at 10 µM.
Estrogen receptor beta, sequence (Q92731 whole entry): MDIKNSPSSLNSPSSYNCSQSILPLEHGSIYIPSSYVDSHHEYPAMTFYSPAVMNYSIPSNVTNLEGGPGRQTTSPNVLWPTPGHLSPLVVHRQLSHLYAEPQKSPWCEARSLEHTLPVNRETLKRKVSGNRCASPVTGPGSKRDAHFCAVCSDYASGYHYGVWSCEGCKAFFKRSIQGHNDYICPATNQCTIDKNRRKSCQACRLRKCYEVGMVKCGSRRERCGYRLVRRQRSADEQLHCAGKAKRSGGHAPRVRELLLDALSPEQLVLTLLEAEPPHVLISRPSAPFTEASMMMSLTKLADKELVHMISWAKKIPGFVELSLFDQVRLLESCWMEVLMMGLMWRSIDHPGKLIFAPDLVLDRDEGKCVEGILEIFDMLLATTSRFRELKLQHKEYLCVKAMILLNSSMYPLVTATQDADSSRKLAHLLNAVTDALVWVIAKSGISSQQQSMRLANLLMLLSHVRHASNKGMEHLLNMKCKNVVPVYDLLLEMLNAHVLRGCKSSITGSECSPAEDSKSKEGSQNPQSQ
The nature of assay [5]: DRUGMATRIX: Calcium Channel Type L, Phenylalkylamine radioligand binding (ligand: [3H] (-)-Desmethoxyverapamil (D-888)). It counts as cell membranes, Rattus norvegicus, Wistar, Brain, Membrane. The settings on record: Not Active = under 50% inhibition at 10 µM.

As for `C#C[C@]1(O)CC[C@H]2[C@@H]3CCC4=CC(=O)CC[C@]4(C)[C@H]3CC[C@@]21C` [ETHISTERONE], the half-inhibitory concentration (IC50) entry was “Not Active” in assay [1]; “Not Active” in assay [2]; 59 nM on Progesterone receptor (read-out: IC50); “Not Active” in assay [3]; “Not Active” in assay [4] (cho-k1); “Not Active” against Estrogen receptor beta. In assay [5], the half-inhibitory concentration (IC50) entry is reported as “Not Active”. For the same compound, the values for the inhibitory constant (Ki) entry (in assay [1]; at Progesterone receptor; in assay [5]) were “Not Active”, 7.75 nM and “Not Active”, respectively.

In the case of `CC(C)(C(=O)O)c1ccc(C(O)CCCN2CCC(C(O)(c3ccccc3)c3ccccc3)CC2)cc1` (stereo not drawn) [FEXOFENADINE], the IC50 result (in assay [1]; in assay [2]; on Progesterone receptor; in assay [3]; in assay [4] (cho-k1); against Estrogen receptor beta) was “Not Active” throughout. In addition, in assay [5], the IC50 entry is listed as “Not Active”. Also, the inhibition constant (Ki) result in assay [1] and in assay [5] was “Not Active” throughout.

As to `CN1CCN(c2c(F)cc3c(=O)c(C(=O)O)cn(CCF)c3c2F)CC1` [FLEROXACIN], the half-inhibitory concentration (IC50) entry (in assay [1]; in assay [2]; at Progesterone receptor; in assay [3]; in assay [4] (cho-k1); at Estrogen receptor beta) was “Not Active” in each case. Further, the IC50 entry in assay [5] was “Not Active”. Besides, the inhibition constant (Ki) result in assay [1] and in assay [5] was “Not Active” each time.

Consider `O=c1[nH]c(=O)n([C@H]2C[C@H](O)[C@@H](CO)O2)cc1F` [FLOXURIDINE], for which the IC50 result (in assay [1]; in assay [2]; on Progesterone receptor; in assay [3]; in assay [4] (cho-k1); against Estrogen receptor beta) was “Not Active” in each case. For the same compound, the IC50 result in assay [5] was “Not Active”. Besides, the inhibition constant Ki result in assay [1] and in assay [5] was “Not Active” throughout.

Take `COC(=O)Nc1nc2cc(C(=O)c3ccc(F)cc3)ccc2[nH]1` [FLUBENDAZOLE]: the half-inhibitory concentration (IC50) entry (in assay [1]; in assay [2]; at Progesterone receptor; in assay [3]; in assay [4] (cho-k1); at Estrogen receptor beta) was “Not Active” each time. Moreover, the IC50 result in assay [5] is “Not Active”. Besides, the Ki entry in assay [1] and in assay [5] was “Not Active” each time.

Take `CC(=O)OCC(=O)[C@@]1(O)CC[C@H]2[C@@H]3CCC4=CC(=O)CC[C@]4(C)[C@@]3(F)[C@@H](O)C[C@@]21C` [FLUDROCORTISONE ACETATE]: the IC50 entry (in assay [1]; in assay [2]; on Progesterone receptor; in assay [3]; in assay [4] (cho-k1); against Estrogen receptor beta) was “Not Active” in each case. In assay [5], the concentration for half-maximal inhibition (IC50) result was “Not Active”. Moreover, the Ki result in assay [1] and in assay [5] was “Not Active” in each case.

As for `CC(=O)OCC(=O)[C@@]12OC(C)(C)O[C@@H]1C[C@H]1[C@@H]3C[C@H](F)C4=CC(=O)C=C[C@]4(C)[C@@]3(F)[C@@H](O)C[C@@]12C` [FLUOCINONIDE], the IC50 entry in assay [1] is “Not Active”; in assay [2] it was “Not Active”; on Progesterone receptor (read-out: IC50), 22 nM; in assay [3], “Not Active”; in assay [4] (cho-k1), “Not Active”; on Estrogen receptor beta, “Not Active”. The IC50 result in assay [5] is “Not Active”. In addition, the values for the inhibition constant Ki result (in assay [1]; at Progesterone receptor; in assay [5]) were “Not Active”, 2.9 nM and “Not Active”, respectively.

Regarding `Cc1ccc(C)c(OCCCC(C)(C)C(=O)O)c1` [GEMFIBROZIL], the IC50 result (in assay [1]; in assay [2]; on Progesterone receptor; in assay [3]; in assay [4] (cho-k1); at Estrogen receptor beta) was “Not Active” throughout. Moreover, the IC50 entry in assay [5] is “Not Active”. Also, the inhibitory constant (Ki) result in assay [1] and in assay [5] was “Not Active” in each case.

On to `CCC1=C(C)CN(C(=O)NCCc2ccc(S(=O)(=O)NC(=O)N[C@H]3CC[C@H](C)CC3)cc2)C1=O` [GLIMEPIRIDE], for which the IC50 entry (in assay [1]; in assay [2]; on Progesterone receptor; in assay [3]; in assay [4] (cho-k1); against Estrogen receptor beta) was “Not Active” each time. Besides, in assay [5], the IC50 result is reported as “Not Active”. The inhibitory constant (Ki) result in assay [1] and in assay [5] was “Not Active” in each case.

As to `Nc1cc(-c2ccncc2)c[nH]c1=O` [INAMRINONE], the IC50 result (in assay [1]; in assay [2]; on Progesterone receptor; in assay [3]; in assay [4] (cho-k1); on Estrogen receptor beta) was “Not Active” each time. In assay [5], the 50% inhibitory concentration (IC50) entry is listed as “Not Active”. Moreover, the Ki result in assay [1] and in assay [5] was “Not Active” each time.

Take `CCCCC1=NC2(CCCC2)C(=O)N1Cc1ccc(-c2ccccc2-c2nnn[nH]2)cc1` [IRBESARTAN]: the IC50 entry (in assay [1]; in assay [2]; at Progesterone receptor; in assay [3]; in assay [4] (cho-k1); at Estrogen receptor beta) was “Not Active” each time. The half-inhibitory concentration (IC50) entry in assay [5] is listed as “Not Active”. Besides, the Ki entry in assay [1] and in assay [5] was “Not Active” in each case.

For `CN1CCC(=C2c3ccccc3CC(=O)c3sccc32)CC1` [KETOTIFEN], the IC50 result in assay [1] is “Not Active”; in assay [2], “Not Active”; at Progesterone receptor, “Not Active”; in assay [3], “Not Active”; in assay [4] (read-out: IC50) it was 46 nM; against Estrogen receptor beta, “Not Active”. Moreover, in assay [5], the IC50 result is recorded as “Not Active”. Further, the Ki result was “Not Active” in assay [1], 29 nM in assay [4] and “Not Active” in assay [5].

In the case of `N[C@@H](Cn1ccc(=O)c(O)c1)C(=O)O` [L-MIMOSINE], the IC50 result (in assay [1]; in assay [2]; at Progesterone receptor; in assay [3]; in assay [4] (cho-k1); on Estrogen receptor beta) was “Not Active” in each case. Also, the IC50 result in assay [5] is “Not Active”. The Ki entry in assay [1] and in assay [5] was “Not Active” in each case.

Take `CN1CCCC(CN2c3ccccc3Sc3ccccc32)C1` (stereo not drawn) [MEPAZINE]: the IC50 entry in assay [1] is “Not Active”; in assay [2], “Not Active”; on Progesterone receptor, “Not Active”; in assay [3], “Not Active”; in assay [4] (read-out: IC50), 514 nM; against Estrogen receptor beta, “Not Active”. Further, the concentration for half-maximal inhibition (IC50) in assay [5] (read-out: IC50) was 1550 nM. Also, the inhibition constant (Ki) entry was “Not Active” in assay [1], 327 nM in assay [4] and 1500 nM in assay [5] (read-out: Ki).

For the compound `Cc1cccc(C)c1NC(=O)C1CCCCN1C` (stereo not drawn) [MEPIVACAINE], the 50% inhibitory concentration (IC50) result (in assay [1]; in assay [2]; at Progesterone receptor; in assay [3]; in assay [4] (cho-k1); on Estrogen receptor beta) was “Not Active” in each case. Besides, the IC50 entry in assay [5] is given as “Not Active”. In addition, the Ki result in assay [1] and in assay [5] was “Not Active” in each case.

Consider `CC(C)(C)NCC(O)COc1cccc2c1CC(O)C(O)C2` (stereo not drawn) [NADOLOL], for which the IC50 entry (in assay [1]; in assay [2]; on Progesterone receptor; in assay [3]; in assay [4] (cho-k1); at Estrogen receptor beta) was “Not Active” each time. In addition, in assay [5], the IC50 result is reported as “Not Active”. Moreover, the Ki result in assay [1] and in assay [5] was “Not Active” throughout.

A word on the IC50: it is the concentration needed to halve the response being measured. The Ki is a measure of affinity in units of concentration, obtained from inhibition or displacement.
